From PubChem BioAssay AID248 (DTP/NCI, 2004)
Several values for one entry are separate records, joined by “and”; a condition that tells them apart may be missing. Equal values may be shown once. Toxic doses and inconclusive results are not listed.

Tested on: L1210 leukemia ip in BDF1 mice, survival T/C
Assay: NCI In Vivo Anticancer Drug Screen. Data for tumor model L1210 Leukemia (intraperitoneal) in B6D2F1 (BDF1) mice
Conditions: endpoint: mean survival time, higher = longer survival
How it was run: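 Survival endpoint. Drug-treated group vs vehicle group, expressed as T divided by C. Tumor passaged by transplantation.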

[1] = dose: 100.0 mg/kg/injection, schedule: Q01DX009 (ip), vehicle: saline
[2] = dose: 200.0 mg/kg/injection, schedule: Q01DX009 (ip), vehicle: saline
[3] = dose: 400.0 mg/kg/injection, schedule: Q01DX009 (ip), vehicle: saline
[4] = dose: 10.0 mg/kg/injection, schedule: Q01DX001 (ip), vehicle: saline
[5] = dose: 20.0 mg/kg/injection, schedule: Q01DX001 (ip), vehicle: saline
[6] = dose: 40.0 mg/kg/injection, schedule: Q01DX001 (ip), vehicle: saline
[7] = dose: 100.0 mg/kg/injection, schedule: Q01DX001 (ip), vehicle: carboxymethylcellulose (CMC)
[8] = dose: 200.0 mg/kg/injection, schedule: Q01DX001 (ip), vehicle: carboxymethylcellulose (CMC)
[9] = dose: 100.0 mg/kg/injection, schedule: Q04DX003 (ip), vehicle: saline with Tween-80
[10] = dose: 200.0 mg/kg/injection, schedule: Q04DX003 (ip), vehicle: saline with Tween-80
[11] = dose: 400.0 mg/kg/injection, schedule: Q04DX003 (ip), vehicle: saline with Tween-80
[12] = dose: 100.0 mg/kg/injection, schedule: Q01DX001 (ip), vehicle: saline
[13] = dose: 200.0 mg/kg/injection, schedule: Q01DX001 (ip), vehicle: saline
[14] = dose: 400.0 mg/kg/injection, schedule: Q01DX001 (ip), vehicle: saline
[15] = dose: 100.0 mg/kg/injection, schedule: Q04DX002 (ip), vehicle: saline with Tween-80

Structure (SMILES): OCC1OC(n2cnc3c2ncn2ccnc32)C(O)C1O (stereo not drawn)
- T/C (dose: 6.25 mg/kg/injection, schedule: Q03HX024 (ip), vehicle: saline): 98 % of control
- T/C (dose: 12.5 mg/kg/injection, schedule: Q03HX024 (ip), vehicle: saline): 93 % of control
- T/C (dose: 12.5 mg/kg/injection, schedule: Q04DX002 (ip), vehicle: saline): 93 % of control
- T/C (dose: 25.0 mg/kg/injection, schedule: Q03HX024 (ip), vehicle: saline): 95 % of control
- T/C (dose: 25.0 mg/kg/injection, schedule: Q04DX002 (ip), vehicle: saline): 97 % of control
- T/C (dose: 50.0 mg/kg/injection, schedule: Q03HX024 (ip), vehicle: saline): 92 % of control
- T/C (dose: 50.0 mg/kg/injection, schedule: Q04DX002 (ip), vehicle: saline): 179 % of control
- T/C (dose: 100.0 mg/kg/injection, schedule: Q01DX005 (ip), vehicle: saline): 101 % of control
- T/C [1]: 107 % of control
- T/C (dose: 100.0 mg/kg/injection, schedule: Q03HX024 (ip), vehicle: saline): 87 % of control
- T/C (dose: 200.0 mg/kg/injection, schedule: Q01DX005 (ip), vehicle: saline): 107 % of control
- T/C [2]: 89 % of control
- T/C (dose: 200.0 mg/kg/injection, schedule: Q03HX024 (ip), vehicle: saline): 88 % of control
- T/C [3]: 104 % of control

Structure (SMILES): Cc1ncn(C)n1
- T/C (dose: 100.0 mg/kg/injection, schedule: Q04DX002 (ip), vehicle: saline): 94 % of control
- T/C (dose: 200.0 mg/kg/injection, schedule: Q04DX002 (ip), vehicle: saline): 112 % of control
- T/C (dose: 400.0 mg/kg/injection, schedule: Q04DX002 (ip), vehicle: saline): 98 % of control

Structure (SMILES): O=S(=O)(O)CS(=O)(=O)O
- T/C (dose: 5.0 mg/kg/injection, schedule: Q01DX001 (ip), vehicle: saline): 101 % of control
- T/C [4]: 100 % of control
- T/C [5]: 97 % of control
- T/C [6]: 101 % of control

Structure (SMILES): NNC(=O)CNc1ccc(F)cc1Cl
- T/C (dose: 100.0 mg/kg/injection, schedule: Q04DX002 (ip), vehicle: Klucel (hydroxypropylcellulose) (HPC)): 101 % of control
- T/C (dose: 200.0 mg/kg/injection, schedule: Q04DX002 (ip), vehicle: Klucel (hydroxypropylcellulose) (HPC)): 105 % of control

Structure (SMILES): COc1cc(C=Nc2cc(Cl)cc(Cl)c2)ccc1N(CCCl)CCCl
- T/C (dose: 10.5 mg/kg/injection, schedule: Q01DX015 (ip), vehicle: carboxymethylcellulose (CMC)): 114 % of control and 116 % of control
- T/C (dose: 18.0 mg/kg/injection, schedule: Q01DX015 (ip), vehicle: carboxymethylcellulose (CMC)): 113 % of control and 117 % of control
- T/C (dose: 30.0 mg/kg/injection, schedule: Q01DX015 (ip), vehicle: carboxymethylcellulose (CMC)): 123 % of control
- T/C (dose: 50.0 mg/kg/injection, schedule: Q01DX001 (ip), vehicle: carboxymethylcellulose (CMC)): 123 % of control
- T/C (dose: 50.0 mg/kg/injection, schedule: Q01DX001 (ip), vehicle: other): 105 % of control
- T/C (dose: 50.0 mg/kg/injection, schedule: Q01DX015 (ip), vehicle: carboxymethylcellulose (CMC)): 122 % of control
- T/C [7]: 157 % of control
- T/C (dose: 100.0 mg/kg/injection, schedule: Q01DX001 (ip), vehicle: other): 118 % of control
- T/C (dose: 150.0 mg/kg/injection, schedule: Q01DX001 (ip), vehicle: carboxymethylcellulose (CMC)): 116 % of control
- T/C [8]: 123 % of control
- T/C (dose: 200.0 mg/kg/injection, schedule: Q01DX001 (ip), vehicle: other): 123 % of control
- T/C (dose: 400.0 mg/kg/injection, schedule: Q01DX001 (ip), vehicle: other): 111 % of control
- T/C (dose: 800.0 mg/kg/injection, schedule: Q01DX001 (ip), vehicle: other): 120 % of control

Structure (SMILES): CCCCCCCCCCCCCCSCCCCCCSCCCCCCCCCCCCCC
- T/C (dose: 100.0 mg/kg/injection, schedule: Q01DX001 (ip), vehicle: Klucel (hydroxypropylcellulose) (HPC)): 98 % of control
- T/C (dose: 200.0 mg/kg/injection, schedule: Q01DX001 (ip), vehicle: Klucel (hydroxypropylcellulose) (HPC)): 93 % of control
- T/C (dose: 400.0 mg/kg/injection, schedule: Q01DX001 (ip), vehicle: Klucel (hydroxypropylcellulose) (HPC)): 94 % of control

Structure (SMILES): c1cc2c(cc1C1=NNC(c3ccc4c(c3)OCO4)=NN1)OCO2
- T/C [9]: 104 % of control
- T/C [10]: 98 % of control
- T/C [11]: 96 % of control

Structure (SMILES): CCN(CC)CCOC(=S)Nc1ccccc1
- T/C (dose: 25.0 mg/kg/injection, schedule: Q01DX009 (ip), vehicle: saline): 100 % of control
- T/C (dose: 50.0 mg/kg/injection, schedule: Q01DX009 (ip), vehicle: saline): 109 % of control
- T/C [1]: 96 % of control and 105 % of control

Structure (SMILES): C/C=C/C(=O)OCCC[N+](C)(C)C
- T/C (dose: 0.78 mg/kg/injection, schedule: Q01DX009 (ip), vehicle: saline): 95 % of control
- T/C (dose: 1.56 mg/kg/injection, schedule: Q01DX009 (ip), vehicle: saline): 97 % of control
- T/C (dose: 3.12 mg/kg/injection, schedule: Q01DX009 (ip), vehicle: saline): 100 % of control
- T/C (dose: 6.25 mg/kg/injection, schedule: Q04DX003 (ip), vehicle: saline): 111 % of control
- T/C (dose: 12.5 mg/kg/injection, schedule: Q04DX003 (ip), vehicle: saline): 88 % of control
- T/C (dose: 25.0 mg/kg/injection, schedule: Q04DX003 (ip), vehicle: saline): 103 % of control

Structure (SMILES): Cc1cc(Cl)c(OCC(=O)O)c(Cl)c1
- T/C [12]: 92 % of control
- T/C [13]: 92 % of control
- T/C [14]: 94 % of control

Structure (SMILES): N=Cc1c(O)[nH]c(=O)[nH]c1=O
- T/C [1]: 95 % of control
- T/C (dose: 100.0 mg/kg/injection, schedule: Q04DX003 (ip), vehicle: saline): 97 % of control
- T/C [2]: 90 % of control
- T/C (dose: 200.0 mg/kg/injection, schedule: Q04DX003 (ip), vehicle: saline): 93 % of control
- T/C [3]: 91 % of control
- T/C (dose: 400.0 mg/kg/injection, schedule: Q04DX003 (ip), vehicle: saline): 95 % of control

Structure (SMILES): CCCCC(CC)COc1ccc(N=C(N)N=C(N)N)cc1 (stereo not drawn)
- T/C [15]: 105 % of control

Structure (SMILES): CC(=O)c1ccc(N=Nc2c(N)nc(N)[nH]c2=O)cc1
- T/C [7]: 101 % of control
- T/C [8]: 106 % of control
- T/C (dose: 400.0 mg/kg/injection, schedule: Q01DX001 (ip), vehicle: carboxymethylcellulose (CMC)): 119 % of control

Structure (SMILES): CC1=NN(c2ccc(S(=O)(=O)O)cc2)C(=O)/C1=C/c1ccc(Cl)cc1Cl
- T/C [12]: 110 % of control
- T/C (dose: 100.0 mg/kg/injection, schedule: Q04DX003 (ip), vehicle: Klucel (hydroxypropylcellulose) (HPC)): 105 % of control
- T/C [13]: 96 % of control
- T/C (dose: 200.0 mg/kg/injection, schedule: Q04DX003 (ip), vehicle: Klucel (hydroxypropylcellulose) (HPC)): 97 % of control
- T/C [14]: 104 % of control
- T/C (dose: 400.0 mg/kg/injection, schedule: Q04DX003 (ip), vehicle: Klucel (hydroxypropylcellulose) (HPC)): 94 % of control

Structure (SMILES): COc1cc([N+](=O)[O-])ccc1NC(=O)N(C1CCCCC1)C1CCCCC1
- T/C (dose: 50.0 mg/kg/injection, schedule: Q01DX009 (ip), vehicle: saline with Tween-80): 100 % of control and 106 % of control
- T/C (dose: 50.0 mg/kg/injection, schedule: Q04DX002 (ip), vehicle: saline with Tween-80): 90 % of control
- T/C (dose: 100.0 mg/kg/injection, schedule: Q01DX001 (ip), vehicle: saline with Tween-80): 95 % of control
- T/C (dose: 100.0 mg/kg/injection, schedule: Q01DX009 (ip), vehicle: saline with Tween-80): 96 % of control and 108 % of control
- T/C [15]: 93 % of control and 99 % of control and 105 % of control
- T/C [9]: 108 % of control
- T/C (dose: 200.0 mg/kg/injection, schedule: Q01DX001 (ip), vehicle: saline with Tween-80): 91 % of control
- T/C (dose: 200.0 mg/kg/injection, schedule: Q01DX009 (ip), vehicle: saline with Tween-80): 100 % of control and 104 % of control
- T/C (dose: 200.0 mg/kg/injection, schedule: Q04DX002 (ip), vehicle: saline with Tween-80): 89 % of control
- T/C [10]: 106 % of control
- T/C (dose: 400.0 mg/kg/injection, schedule: Q01DX001 (ip), vehicle: saline with Tween-80): 91 % of control
- T/C (dose: 400.0 mg/kg/injection, schedule: Q01DX009 (ip), vehicle: saline with Tween-80): 108 % of control and 111 % of control
- T/C (dose: 400.0 mg/kg/injection, schedule: Q04DX002 (ip), vehicle: saline with Tween-80): 93 % of control and 97 % of control and 99 % of control
- T/C [11]: 104 % of control

Structure (SMILES): C=CC(=O)Nc1cccc(OC(=O)NC(C)(C)C)c1
- T/C [9]: 101 % of control
- T/C [10]: 92 % of control
- T/C [11]: 87 % of control

Structure (SMILES): Cc1noc(/N=C/c2cccc(Cl)c2)c1C
- T/C [12]: 101 % of control
- T/C [13]: 105 % of control
- T/C [14]: 101 % of control

Structure (SMILES): O=C1C=CC(=O)N1c1cc(Cl)c(Cl)cc1Cl
- T/C [4]: 97 % of control
- T/C [5]: 87 % of control
- T/C [6]: 95 % of control
